Article PMC9671962 (Communications Biology, 2022)
Where “and” joins values, the source holds several entries; their conditions need not be identical. Equal entries are not always repeated.

Columns and labels:
[1] = Mouse weight over time / tolerability in PDX efficacy study (Fig. 1f); type: in vivo
Experimental: The use of 2 mice per arm was based on the previously reported statistical analysis. PDX tumors were implanted into the right flank of 5 to 6-weeks old female mice weighing about 20–25 grams. […] Two additional dose levels of 12, and 24 MBq/kg/fraction were assessed in a subset of models and were administered as stated above. In two models treated at the 24 MBq/kg/fraction dose level we re-challenged tumor response at the time of tumor progression with an additional 4 dose fractions at 24 MBq/kg/fraction given twice weekly. Doses were prepared in 500 µL total volume. An equal volume of saline was used for the vehicle group. Tumors were measured using a digital caliper at the initiation of the study and two times per week during the treatment period. Tumor volumes were calculated as volume = ([…]∗0.5236)/1000. Weights were obtained twice weekly and mice were monitored daily for signs of toxicity. […] Tumor response was assessed by best response defined as greatest reduction in tumor volume following the last dose and is presented as percent change in tumor volume. Event-free survival was determined by area over the curve method that calculates the time to tumor event, which was defined as tumors reaching or exceeding a size ≥ 2 cm^3.

PARP1 = experiment: Clinical PET imaging / first-in-human dosimetry of [^18F]FTT and extrapolation to [^211At]PTT; type: in vivo
[2] = tested on: marrow progenitor cells (GEMM, GM); experiment: Marrow toxicity by marrow progenitor colony formation assay; type: in vivo, CB57/BL6 mice
Experimental: Toxicity studies were done in nontumor bearing CB-17 SCID mice (Taconic Biosciences). […] Each arm had n = 10 mice (5 male, 5 female mice). […] The vehicle group received an equal volume of saline (placebo). Weights were obtained twice weekly and mice were monitored daily for signs of toxicity. […] On target hematological and marrow toxicity which was evaluated by complete blood counts and marrow colony formation assay. An additional study was performed under identical conditions to evaluate additive dose effects. […] Each treatment group was composed of equal numbers of male and female mice to rule out gender-specific effects (n = 4 per treatment group per time point). Mice were followed for signs of acute toxicity for 2 weeks and 4 weeks before euthanasia. An additional group (n = 4) treated at 36 MBq/kg was euthanized after 72 h to assess early signs of toxicity by colony formation assays. This time course was chosen to best capture the nadir of bone marrow suppression. After euthanasia, blood was collected and femurs were dissected and processed for histopathology and bone marrow evaluation.
After euthanasia, mouse hind limbs were dissected as previously described for bone and marrow isolation. The other hind limb was processed for bone marrow via centrifugation. Bone marrow pellets were resuspended in 1 X RBC Lysis Buffer (BioLegend, San Diego, CA) and rocked on a tilt-table for 5 minutes. Bone marrow cell pellet was isolated by centrifugation at 13,000 RPM on a tabletop centrifuge for 1 minute. Cells were resuspended in IMDM with 2% FBS (Gibco, ThermoFisher Scientific, Grand Island, New York) and counted on a Countess II Automated Cell Counter (ThermoFisher Scientific, Grand Island, NY).
Colony formation assays were performed per manufacturer’s protocol. In brief, 1.8 ×10^5 bone marrow cells suspended in 300 µL IMDM with 2% FBS were combined with 3 mL of Mouse Methylcellulose Complete Media (R&D Systems Inc, Minneapolis, MN). Gel mixture was syringe-pipetted in duplicate to lids of 6 cm culture dishes and housed with a 6 cm sterile water dish within a 25 cm culture dish. Cultures were incubated at 37 °C for 8 days prior to analysis on a microscope. Colonies were counted by one individual per manufacturer’s recommended protocol. Of note, at least 30 cells were required to call a colony positive.

[3] = 4 wk after 2 dose fractions at 36 MBq/kg/fraction
[4] = 36 MBq/kg x 4 dose fractions, 72 hours post-treatment, replicate
[5] = 48 MBq/kg x 4 dose fractions, 72 hours post-treatment, replicate
[6] = 60 MBq/kg x 4 dose fractions, 72 hours post-treatment, replicate
[7] = dose escalation 36, 48, 60 MBq/kg x 4 fractions

**Q.** Which results are given for `O=C1NCCn2c(-c3ccc([211At])cc3)nc3cccc1c32` [[^211At]PTT, Astatine-211-parthanatine]?
**A.** Percent Body Weight from study initiation ([1]; COG415-325, 12 MBq/kg/fraction x 4, 0.4 Weeks): 100.48% and 95.77%; Percent Body Weight from study initiation ([1]; COG415-325, 12 MBq/kg/fraction x 4, 1 Weeks): 100.97% and 94.84%; Percent Body Weight from study initiation ([1]; COG415-325, 12 MBq/kg/fraction x 4, 1.4 Weeks): 100% and 92.96%; Percent Body Weight from study initiation ([1]; COG415-325, 12 MBq/kg/fraction x 4, 2 Weeks): 97.58% and 92.96%; Percent Body Weight from study initiation ([1]; COG415-325, 12 MBq/kg/fraction x 4, 2.4 Weeks): 103.86% and 98.12%; Percent Body Weight from study initiation ([1]; COG415-325, 12 MBq/kg/fraction x 4, 3 Weeks): 102.42% and 99.53%; Percent Body Weight from study initiation ([1]; COG415-325, 12 MBq/kg/fraction x 4, 3.4 Weeks): 108.7% and 102.35%; Percent Body Weight from study initiation ([1]; COG415-325, 12 MBq/kg/fraction x 4, 4 Weeks): 111.11% and 110.33%; Percent Body Weight from study initiation ([1]; COG415-650, 24 MBq/kg/fraction x 4, 0.4 Weeks): 102.79% and 99.52%; Percent Body Weight from study initiation ([1]; COG415-650, 24 MBq/kg/fraction x 4, 1 Weeks): 96.74% and 92.82%; Percent Body Weight from study initiation ([1]; COG415-650, 24 MBq/kg/fraction x 4, 1.4 Weeks): 92.56% and 90.43%; Percent Body Weight from study initiation ([1]; COG415-650, 24 MBq/kg/fraction x 4, 2 Weeks): 90.23% and 87.56%; Percent Body Weight from study initiation ([1]; COG415-650, 24 MBq/kg/fraction x 4, 2.4 Weeks): 93.49% and 92.34%; Percent Body Weight from study initiation ([1]; COG415-650, 24 MBq/kg/fraction x 4, 3 Weeks): 100.93% and 99.04%; Percent Body Weight from study initiation ([1]; COG415-650, 24 MBq/kg/fraction x 4, 3.4 Weeks): 100% and 96.65%; Percent Body Weight from study initiation ([1]; COG415-650, 24 MBq/kg/fraction x 4, 4 Weeks): 102.33% and 99.04%; Percent Body Weight from study initiation ([1]; COG415-650, 24 MBq/kg/fraction x 4, 4.4 Weeks): 106.05% and 102.39%; Percent Body Weight from study initiation ([1]; COG415-650, 24 MBq/kg/fraction x 4, 5 Weeks): 107.44% and 96.65%; Percent Body Weight from study initiation ([1]; COG415-650, 24 MBq/kg/fraction x 4, 5.4 Weeks): 111.63% and 101.91%; Percent Body Weight from study initiation ([1]; COG415-650, 24 MBq/kg/fraction x 4, 6 Weeks): 104.31%; Percent Body Weight from study initiation ([1]; COG415-975, 36 MBq/kg/fraction x 4, 0 Weeks): 100%; Percent Body Weight from study initiation ([1]; COG415-975, 36 MBq/kg/fraction x 4, 0.4 Weeks): 94.07% and 98.23%; Percent Body Weight from study initiation ([1]; COG415-975, 36 MBq/kg/fraction x 4, 1 Weeks): 84.75% and 90.71%; Percent Body Weight from study initiation ([1]; COG415-975, 36 MBq/kg/fraction x 4, 1.4 Weeks): 80.51% and 90.27%; Percent Body Weight from study initiation ([1]; COG415-975, 36 MBq/kg/fraction x 4, 2 Weeks): 72.88% and 79.65%; Percent Body Weight from study initiation ([1]; COG415-975, 36 MBq/kg/fraction x 4, 2.4 Weeks): 77.97% and 83.63%; Percent Body Weight from study initiation ([1]; COG415-975, 36 MBq/kg/fraction x 4, 3 Weeks): 80.08% and 81.86%; Percent Body Weight from study initiation ([1]; COG415-975, 36 MBq/kg/fraction x 4, 3.4 Weeks): 75.42% and 81.42%; Percent Body Weight from study initiation ([1]; COG415-975, 36 MBq/kg/fraction x 4, 4 Weeks): 80.93% and 80.09%; Percent Body Weight from study initiation ([1]; COG415-975, 36 MBq/kg/fraction x 4, 4.4 Weeks): 82.2% and 82.3%; Percent Body Weight from study initiation ([1]; COG415-975, 36 MBq/kg/fraction x 4, 5 Weeks): 88.56% and 88.05%; Percent Body Weight from study initiation ([1]; COG415-975, 36 MBq/kg/fraction x 4, 5.4 Weeks): 88.98% and 91.59%; Percent Body Weight from study initiation ([1]; COG415-975, 36 MBq/kg/fraction x 4, 6.1 Weeks): 96.19% and 92.48%; Percent Body Weight from study initiation ([1]; COG415-975, 36 MBq/kg/fraction x 4, 6.4 Weeks): 94.07% and 90.71%; Percent Body Weight from study initiation ([1]; COG415-975, 36 MBq/kg/fraction x 4, 7 Weeks): 99.58% and 93.36%; Percent Body Weight from study initiation ([1]; COG415-975, 36 MBq/kg/fraction x 4, 7.4 Weeks): 101.27% and 93.36%; Percent Body Weight from study initiation ([1]; COG415-975, 36 MBq/kg/fraction x 4, 8 Weeks): 95.48%; Percent Body Weight from study initiation ([1]; COG415-975, 36 MBq/kg/fraction x 4, 8.9 Weeks): 100.44%; Percent Body Weight from study initiation ([1]; COG415-975, 36 MBq/kg/fraction x 4, 9.4 Weeks): 100.88%; Percent Body Weight from study initiation ([1]; COG415-975, 36 MBq/kg/fraction x 4, 10 Weeks): 101.77%; Percent Body Weight from study initiation ([1]; COG415-975, 36 MBq/kg/fraction x 4, 10.4 Weeks): 103.98%; Percent Body Weight from study initiation ([1]; COG415-975, 36 MBq/kg/fraction x 4, 11 Weeks): 107.08%; Percent Body Weight from study initiation ([1]; COG415-975, 36 MBq/kg/fraction x 4, 12 Weeks): 105.31%; Percent Body Weight from study initiation ([1]; COG519-325, 12 MBq/kg/fraction x 4, 0 Weeks): 100%; Percent Body Weight from study initiation ([1]; COG519-325, 12 MBq/kg/fraction x 4, 0.4 Weeks): 100% and 97.98%; Percent Body Weight from study initiation ([1]; COG519-325, 12 MBq/kg/fraction x 4, 1 Weeks): 93.83% and 96.97%; Percent Body Weight from study initiation ([1]; COG519-650, 24 MBq/kg/fraction x 4, 0 Weeks): 100%; Percent Body Weight from study initiation ([1]; COG519-650, 24 MBq/kg/fraction x 4, 0.4 Weeks): 97.69% and 96.86%; Percent Body Weight from study initiation ([1]; COG519-650, 24 MBq/kg/fraction x 4, 1 Weeks): 95.37% and 97.38%; mice censored from EFS analysis due to weight loss >20% ([1]; MTD, two out of 22 mice, >50 days from treatment): 9%; Percent Body Weight from study initiation ([1]; NBSD-650, 24 MBq/kg/fraction x 4, 2.6 Weeks): 90.4306% and 91.4027%; Percent Body Weight from study initiation ([1]; NBSD-650, 24 MBq/kg/fraction x 4, 3 Weeks): 94.7368% and 92.3077%; Percent Body Weight from study initiation ([1]; NBSD-650, 24 MBq/kg/fraction x 4, 3.6 Weeks): 95.2153% and 92.7602%; Percent Body Weight from study initiation ([1]; NBSD-650, 24 MBq/kg/fraction x 4, 4 Weeks): 98.0861%; Percent Body Weight from study initiation ([1]; NBSD-975, 36 MBq/kg/fraction x 4, 2.6 Weeks): 84.141% and 86.3636%; Percent Body Weight from study initiation ([1]; NBSD-975, 36 MBq/kg/fraction x 4, 3 Weeks): 81.9383% and 87.8788%; Percent Body Weight from study initiation ([1]; NBSD-975, 36 MBq/kg/fraction x 4, 3.6 Weeks): 81.4978% and 88.3838%; dose-limiting toxicity observed (number) ([1]; NE-EBC1x tumor-bearing mouse re-challenged with 24 MBq/kg fractionated regimen): One; treated mice that maintained a healthy weight throughout the study (≥100 ± 20% body weight) ([1]; all dose levels): 43 of 46; extrapolated equivalent dose to the kidneys (PARP1; RBE of 5 for alpha radiation): approximately 2 mSv/MBq; estimated SUVmax in neuroblastoma tumors (PARP1; estimate from [^18F]FTT clinical data and pre-clinical uptake): approximately 10; rough estimate of absorbed tumor dose (PARP1; patient, biological half-life 5.1 hr and SUVmax of 10): 0.17 Gy per MBq/kg; estimated renal absorbed dose (PARP1; using human biodistribution results of [^18F]FTT in adults): 0.25–0.41 mGy/MBq; time by which marrow recovery stabilized, GEMM and GM progenitor cells ([2]; 3 dose fractions at 36 MBq/kg): ≤ 2 weeks; GEMM (CFU) [2, 3]: 4 CFU and 7.5 CFU and 6 CFU and 5 CFU; GM (CFU) [2, 3]: 22 CFU and 36.5 CFU and 33 CFU and 24 CFU and 38 CFU; GEMM (CFU) [2, 4]: 7 CFU and 3 CFU and 2 CFU and 8 CFU and 14 CFU and 5 CFU and 9 CFU; GM (CFU) [2, 4]: 15 CFU and 10 CFU and 23 CFU and 13 CFU and 9 CFU; GEMM (CFU) [2, 5]: 12 CFU and 5 CFU and 7 CFU and 3 CFU and 6 CFU; GM (CFU) [2, 5]: 1 CFU and 5 CFU and 2 CFU and 12 CFU and 6 CFU and 7 CFU; GEMM (CFU) [2, 6]: 2 CFU and 3 CFU and 8 CFU and 7 CFU and 6 CFU and 4 CFU; GM (CFU) [2, 6]: 5 CFU and 8 CFU and 7 CFU and 4 CFU; GEMM (CFU) ([2]; 72 hrs after 2 dose fractions at 36 MBq/kg/fraction): 4 CFU and 6 CFU and 3 CFU and 5 CFU and 4.5 CFU; colony formation of early marrow progenitor cells (GEMM) [2, 7]: reduced only at the highest dose level evaluated (60 MBq/kg); colony formation of granulocyte and megakaryocyte progenitors [2, 7]: reduction in colony formation at all dose levels evaluated; time of full recovery of colony formation ([2]; post treatment, 3 dose fractions at 36 MBq/kg): 4 weeks
